This series is described as follows: aqueous solubility in buffer. The note with it: buffer of pH 6.5 (close to the pH of the intestine). It counts as physicochemical. On the procedure: However, like many other HIV protease inhibitors, these compounds are characteristically lipophilic and thus poorly water soluble. For example, the compound of formula I has an aqueous solubility about 1 μg/ml in the buffer of pH 6.5 (close to the pH of the intestine), which is considered as extremely poor aqueous solubility and would be expected to provide very low oral bioavailability in the free acid form.

One may read the solubility as the dissolved amount per volume that the medium holds. A high value points to a readily soluble substance. As for `CCC[C@@]1(CCc2ccccc2)CC(O)=C([C@H](CC)c2cccc(NS(=O)(=O)c3ccc(C(F)(F)F)cn3)c2)C(=O)O1` [compound of formula I], the solubility was approximately 1 µg/mL.
